Source: PubChem BioAssay AID2060618 (Molecular Pharmacology Branch, DTP, NCI, 2025)

Test system: 454973-116-R2-J3-PDC spheroids, percent test/control viability
Test: Anticancer human tumor 454973-116-R2-J3-PDC patient-derived pancreatic carcinoma cell line growth inhibition [CLK]
Details: spheroids with HUVEC and MSC; for IC50: curve of first compound; for viability, T/C: stronger effect = lower value
Summary of the method: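 Multi-cell-type spheroids combined patient-derived tumor cells with HUVEC endothelial cells and human mesenchymal stem cells. Paired agents were dosed in half-log steps down from about clinical Cmax, or from 10 microM where Cmax was unknown.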

[1] = second compound 0.0316 µM, first compound 0.0316 µM
[2] = second compound 0.0316 µM, first compound 0.1 µM
[3] = second compound 0.0316 µM, first compound 0.316 µM
[4] = second compound 0.0316 µM, first compound 1 µM
[5] = second compound 0.0316 µM, first compound 3.16 µM
[6] = second compound 0.0316 µM, first compound 10 µM
[7] = second compound 0.1 µM, first compound 0.0316 µM
[8] = second compound 0.1 µM, first compound 0.1 µM
[9] = second compound 0.1 µM, first compound 0.316 µM
[10] = second compound 0.1 µM, first compound 1 µM
[11] = second compound 0.1 µM, first compound 3.16 µM
[12] = second compound 0.1 µM, first compound 10 µM
[13] = second compound 0.316 µM, first compound 0.0316 µM
[14] = second compound 0.316 µM, first compound 0.1 µM
[15] = second compound 0.316 µM, first compound 0.316 µM
[16] = second compound 0.316 µM, first compound 1 µM
[17] = second compound 0.316 µM, first compound 3.16 µM
[18] = second compound 0.316 µM, first compound 10 µM
[19] = second compound 1 µM, first compound 0.0316 µM
[20] = second compound 1 µM, first compound 0.1 µM
[21] = second compound 1 µM, first compound 0.316 µM
[22] = second compound 1 µM, first compound 1 µM
[23] = second compound 1 µM, first compound 3.16 µM
[24] = second compound 1 µM, first compound 10 µM
[25] = second compound 3.16 µM, first compound 0.0316 µM
[26] = second compound 3.16 µM, first compound 0.1 µM
[27] = second compound 3.16 µM, first compound 0.316 µM
[28] = second compound 3.16 µM, first compound 1 µM
[29] = second compound 3.16 µM, first compound 3.16 µM
[30] = second compound 3.16 µM, first compound 10 µM
[31] = second compound 10 µM, first compound 0.0316 µM
[32] = second compound 10 µM, first compound 0.1 µM
[33] = second compound 10 µM, first compound 0.316 µM
[34] = second compound 10 µM, first compound 1 µM
[35] = second compound 10 µM, first compound 3.16 µM
[36] = second compound 10 µM, first compound 10 µM
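Further: spheroids exposed to compounds for 7 days before readout.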

`C#Cc1c(F)ccc2cc(O)cc(-c3ncc4c(N5CC6CCC(C5)N6)nc(OCC56CCCN5CC(F)C6)nc4c3F)c12` (stereo not drawn) + CNC(=O)c1ccc(Nc2nc(OC3CCCC3)c3c(-c4ccc5nc(C)oc5c4)c[nH]c3n2)c(OC)c1 gave an IC50 (second compound 0.0316 µM) of 40.1 nM, an IC50 (second compound 0.1 µM) of 35 nM and an IC50 (second compound 0.316 µM) of less than 31.6 nM. The IC50 (second compound 1 µM) was less than 31.6 nM, the IC50 (second compound 3.16 µM) was less than 31.6 nM and the IC50 (second compound 10 µM) was less than 31.6 nM. It also gave a viability, T/C [1] of 52.8%, a viability, T/C [2] of 41.1% and a viability, T/C [3] of 32.7%. The viability, T/C [4] was 32.5%, the viability, T/C [5] was 29.4% and the viability, T/C [6] was 22.4%. The viability, T/C [7] was 50.7%, the viability, T/C [8] was 43.8% and the viability, T/C [9] was 33.5%. The viability, T/C [10] was 27.5%, the viability, T/C [11] was 26% and the viability, T/C [12] was 15.1%. The viability, T/C [13] was 37.8%, the viability, T/C [14] was 30.9% and the viability, T/C [15] was 19.4%. The viability, T/C [16] was 12.7%, the viability, T/C [17] was 13.8% and the viability, T/C [18] was 12.1%. For the same compound, the viability, T/C [19] was 16.7%, the viability, T/C [20] was 12.7% and the viability, T/C [21] was 12.2%. The viability, T/C [22] was 12.7%, the viability, T/C [23] was 10.9% and the viability, T/C [24] was 7.84%. It also gave a viability, T/C [25] of 15.9%, a viability, T/C [26] of 12.7% and a viability, T/C [27] of 11.3%. For the same compound, the viability, T/C [28] was 11.3%, the viability, T/C [29] was 9.18% and the viability, T/C [30] was 6.34%. The viability, T/C [31] was 17.9%, the viability, T/C [32] was 12.4% and the viability, T/C [33] was 11.5%. It also gave a viability, T/C [34] of 12%, a viability, T/C [35] of 10.3% and a viability, T/C [36] of 5.25%.

For `C=C(F)C(=O)N1CCN(c2nc(OCC3CCCN3C)nc3c2CCN(c2cccc4cccc(Cl)c24)C3)CC1CC#N` (stereo not drawn) + CNC(=O)c1ccc(Nc2nc(OC3CCCC3)c3c(-c4ccc5nc(C)oc5c4)c[nH]c3n2)c(OC)c1, the IC50 (second compound 0.0316 µM) was 5840 nM, the IC50 (second compound 0.1 µM) was 4820 nM and the IC50 (second compound 0.316 µM) was less than 31.6 nM. For the same compound, the IC50 (second compound 1 µM) was less than 31.6 nM, the IC50 (second compound 3.16 µM) was less than 31.6 nM and the IC50 (second compound 10 µM) was less than 31.6 nM. For the same compound, the viability, T/C [1] was 111%, the viability, T/C [2] was 114% and the viability, T/C [3] was 109%. For the same compound, the viability, T/C [4] was 109%, the viability, T/C [5] was 106% and the viability, T/C [6] was 1.38%. For the same compound, the viability, T/C [7] was 96.9%, the viability, T/C [8] was 85% and the viability, T/C [9] was 75.7%. It also gave a viability, T/C [10] of 89.8%, a viability, T/C [11] of 78.3% and a viability, T/C [12] of 0.85%. For the same compound, the viability, T/C [13] was 39.6%, the viability, T/C [14] was 36.1% and the viability, T/C [15] was 38.2%. It also gave a viability, T/C [16] of 37.2%, a viability, T/C [17] of 39.5% and a viability, T/C [18] of 0.19%. It also gave a viability, T/C [19] of 35.2%, a viability, T/C [20] of 27.1% and a viability, T/C [21] of 30.4%. The viability, T/C [22] was 36.5%, the viability, T/C [23] was 31.1% and the viability, T/C [24] was 0.5%. It also gave a viability, T/C [25] of 29.8%, a viability, T/C [26] of 27.9% and a viability, T/C [27] of 28.5%. The viability, T/C [28] was 34.6%, the viability, T/C [29] was 27.2% and the viability, T/C [30] was 0.29%. The viability, T/C [31] was 28.2%, the viability, T/C [32] was 24.4% and the viability, T/C [33] was 26.5%. The viability, T/C [34] was 25.3%, the viability, T/C [35] was 19.2% and the viability, T/C [36] was 0.25%.

`C=CC(=O)N1CCN(c2nc(=O)n(-c3c(C)ccnc3C(C)C)c3nc(-c4c(O)cccc4F)c(F)cc23)C(C)C1` (stereo not drawn) + CNC(=O)c1ccc(Nc2nc(OC3CCCC3)c3c(-c4ccc5nc(C)oc5c4)c[nH]c3n2)c(OC)c1 was tested, and the IC50 (second compound 0.0316 µM) was greater than 10000 nM, the IC50 (second compound 0.1 µM) was greater than 10000 nM and the IC50 (second compound 0.316 µM) was 62.5 nM. The IC50 (second compound 1 µM) was less than 31.6 nM, the IC50 (second compound 3.16 µM) was less than 31.6 nM and the IC50 (second compound 10 µM) was less than 31.6 nM. For the same compound, the viability, T/C [1] was 103%, the viability, T/C [2] was 113% and the viability, T/C [3] was 118%. For the same compound, the viability, T/C [4] was 124%, the viability, T/C [5] was 122% and the viability, T/C [6] was 115%. For the same compound, the viability, T/C [7] was 107%, the viability, T/C [8] was 113% and the viability, T/C [9] was 101%. The viability, T/C [10] was 119%, the viability, T/C [11] was 113% and the viability, T/C [12] was 120%. The viability, T/C [13] was 52%, the viability, T/C [14] was 48.1% and the viability, T/C [15] was 48%. For the same compound, the viability, T/C [16] was 47%, the viability, T/C [17] was 47.5% and the viability, T/C [18] was 45%. It also gave a viability, T/C [19] of 28.5%, a viability, T/C [20] of 30.5% and a viability, T/C [21] of 34%. The viability, T/C [22] was 32.6%, the viability, T/C [23] was 37.3% and the viability, T/C [24] was 31.4%. For the same compound, the viability, T/C [25] was 32.8%, the viability, T/C [26] was 24% and the viability, T/C [27] was 30.9%. It also gave a viability, T/C [28] of 30.9%, a viability, T/C [29] of 28.5% and a viability, T/C [30] of 25.4%. For the same compound, the viability, T/C [31] was 25.2%, the viability, T/C [32] was 25.6% and the viability, T/C [33] was 25.6%. It also gave a viability, T/C [34] of 26.1%, a viability, T/C [35] of 30.2% and a viability, T/C [36] of 23.5%.

`CC(CO)NC(=O)c1cc(-c2ccc(Cl)cc2)nn(-c2cnn(C)c2)c1=O` (stereo not drawn) + CNC(=O)c1ccc(Nc2nc(OC3CCCC3)c3c(-c4ccc5nc(C)oc5c4)c[nH]c3n2)c(OC)c1 was tested, and the IC50 (second compound 0.0316 µM) was greater than 10000 nM, the IC50 (second compound 0.1 µM) was greater than 10000 nM and the IC50 (second compound 0.316 µM) was less than 31.6 nM. It also gave an IC50 (second compound 1 µM) of less than 31.6 nM, an IC50 (second compound 3.16 µM) of less than 31.6 nM and an IC50 (second compound 10 µM) of less than 31.6 nM. It also gave a viability, T/C [1] of 105%, a viability, T/C [2] of 96.5% and a viability, T/C [3] of 111%. For the same compound, the viability, T/C [4] was 112%, the viability, T/C [5] was 100% and the viability, T/C [6] was 77%. It also gave a viability, T/C [7] of 105%, a viability, T/C [8] of 105% and a viability, T/C [9] of 96.2%. For the same compound, the viability, T/C [10] was 99.7%, the viability, T/C [11] was 101% and the viability, T/C [12] was 80.8%. The viability, T/C [13] was 46%, the viability, T/C [14] was 41.3% and the viability, T/C [15] was 47.2%. For the same compound, the viability, T/C [16] was 37.1%, the viability, T/C [17] was 45.2% and the viability, T/C [18] was 43.5%. For the same compound, the viability, T/C [19] was 33.7%, the viability, T/C [20] was 32.9% and the viability, T/C [21] was 32.8%. It also gave a viability, T/C [22] of 31.6%, a viability, T/C [23] of 30.8% and a viability, T/C [24] of 32.1%. The viability, T/C [25] was 24.5%, the viability, T/C [26] was 31.7% and the viability, T/C [27] was 30.2%. It also gave a viability, T/C [28] of 30.5%, a viability, T/C [29] of 34.9% and a viability, T/C [30] of 29%. The viability, T/C [31] was 30.3%, the viability, T/C [32] was 31.7% and the viability, T/C [33] was 31.8%. It also gave a viability, T/C [34] of 27.6%, a viability, T/C [35] of 29.3% and a viability, T/C [36] of 24.7%.
